We go through 6 compounds from patent US20240317683A1, “METHODS OF TREATING MOOD DISORDERS” (priority 2020, published 2024).

By AUC(0-t) is commonly meant exposure summed from dosing to a finite time, without extrapolation to infinity. Higher therefore signals high exposure. Broadly, the Cmax is the highest concentration seen after dosing. A word on the Tmax: it is the time from dosing to the highest level. As a reminder, the IC50 is the midpoint of a concentration-inhibition curve. Read a high IC50 as a need for much substance. The term EC50 denotes the concentration giving half of the maximal effect. Lower therefore signals a more potent agent. What is called inhibition is the share of the control response that was lost under treatment. Broadly, the half-life is the time in which the quantity being followed falls by half.

Data set [1] in a line: Pharmacokinetics in rats, plasma. In kind it is in vivo. As to conditions: male, Sprague Dawley, rat plasma, SC. How it is done:
Animals. Male Sprague Dawley rats, aged 8-12 weeks, were used in these studies. Four rats were housed in each cage. Temperature and humidity were maintained at 22±3° C. and 30-70%, respectively, and illumination was controlled to give a 12 h light and 12 h dark cycle. Temperature and humidity were recorded by an auto-controlled data logger system. All animals were provided laboratory rodent diet and were fasted for 4 h pre-dose and 2 h post-dose. Reverse osmosis water treated with ultraviolet light was provided ad libitum. Animals were randomly assigned to treatment groups.
Drugs. Compounds 4 and 5 were prepared as described above. Compound 6 was commercially obtained. Test compounds were used as the hydrogen fumarate (6) or hydrochloride (4 and 5) salts and were dissolved in a vehicle consisting of normal saline. They were then administered subcutaneously (SC) at a dose of 1 or 10 mg/kg (calculated based on the free base) and at a volume of 5 mL/kg body weight.
Sample Collection and Bioanalysis. Blood samples (approximately 120 μL) were collected under light isoflurane anesthesia (Surgivet®) from the retro orbital plexus at 0.08, 0.25, 0.5, 1, 2, 4, 8, and 24 h (4 animals per time point). Immediately after blood collection, plasma was harvested by centrifugation at 4,000 rpm for 10 min at 4° C. and samples were stored at −70±10° C. until bioanalysis. Following blood collection, animals were immediately sacrificed, the abdominal vena-cava was cut open, and the whole body was perfused from the heart using 10 mL of normal saline, and brain samples were collected from all animals. After isolation, brain samples were rinsed three times in ice-cold normal saline (for 5-10 seconds/rinse using ˜5-10 mL normal saline in disposable petri dish for each rinse) and dried on blotting paper. Brain samples were homogenized using ice-cold phosphate-buffered saline (pH 7.4). Total homogenate volume was three times the tissue weight. All homogenates were stored at −70±10° C. until bioanalysis. For bioanalysis, 25 μL aliquots of plasma/brain study samples or spiked plasma/brain calibration standards were added to individual pre-labeled micro-centrifuge tubes followed by 100 μL of an internal standard solution (glipizide, 500 ng/ml in acetonitrile) except for blanks, where 100 μL of acetonitrile was added. Samples were vortexed for 5 minutes and then centrifuged for 10 minutes at 4,000 rpm at 4° C. Following centrifugation, 100 μL of each clear supernatant was transferred to a 96 well plate and analyzed with a fit-for-purpose LC-MS/MS method, with authentic samples of each analyte used for calibration and identification.
Data Analysis. Pharmacokinetic parameters were estimated using the non-compartmental analysis tool of Phoenix® WinNonlin software (Ver 8.0).

For a further data set, the target named is CYP2C19 (Homo sapiens (Human), UniProt P33261). As to the kind of experiment: CYP inhibition in human liver microsomes, CYP2C19. The data set is classed as in vitro ADME. As to conditions: for inhibition at 10 min, 10 µM: both sexes, human, pooled human liver microsomes, pH 7.4, probe (S)-mephenytoin (30 μM), HLM, (S)-mephenytoin substrate, read-out: CYP 2C19 % Inhibition at 10 μM. How it is done:
HLM Incubations. Pooled HLM from adult male and female donors (Corning 452117) were used. Microsomal incubations were carried out in multi-well plates. Liver microsomal incubation aliquots contained 1) PBS (100 mM, pH 7.4), MgCl2 (3.3 mM), and NADPH (1 mM); 2) liver microsomal protein (0.2 mg/mL); 3) the reference CYP substrates: phenacetin for CYP1A2 (10 μM), diclofenac for CYP2C9 (5 μM), (S)-mephenytoin for CYP2C19 (30 μM), dextromethorphan for CYP2D6 (5 μM), and midazolam for CYP3A4 (2 μM); and 4) test compounds (10 μM), control inhibitors (3 μM α-naphthoflavone for CYP1A2, 3 μM sulfaphenazole for CYP2C9, 1 μM (+)-N-3-benzylnirvanol for 2C19, 3 μM quinidine for CYP2D6, or 3 μM ketoconazole for CYP3A4), or solvent (for uninhibited condition). Incubations were carried out at 37° C. with constant shaking for 10 minutes.
Sample Analysis. […] Percent inhibition by test compounds or control inhibitors was calculated by comparing the metabolite formation in the presence of the inhibitor compared to the metabolite formation in the absence of the inhibitor.
For orientation: Liver microsomes are vesicles of endoplasmic reticulum, rich in cytochrome P450 enzymes.

A further data set deals with CYP3A4 (Homo sapiens (Human), UniProt P08684). As to the kind of experiment: CYP inhibition in human liver microsomes, CYP3A4. The data set is classed as in vitro ADME. As to conditions: for inhibition at 10 min, 10 µM: both sexes, human, pooled human liver microsomes, pH 7.4, probe midazolam (2 μM), HLM, midazolam substrate, read-out: CYP 3A4 % Inhibition at 10 μM.
A further data set concerns the target CYP2D6 (Homo sapiens (Human), UniProt P10635). As to the kind of experiment: CYP inhibition in human liver microsomes, CYP2D6. The data set is classed as in vitro ADME. As to conditions: for inhibition at 10 min, 10 µM: both sexes, human, pooled human liver microsomes, pH 7.4, probe dextromethorphan (5 μM), HLM, dextromethorphan substrate, read-out: CYP 2D6 % Inhibition at 10 μM.

Another data set has as its target CYP2C9 (Homo sapiens (Human), UniProt P11712). As to the kind of experiment: CYP inhibition in human liver microsomes, CYP2C9. The data set is classed as in vitro ADME. As to conditions: for inhibition at 10 min, 10 µM: both sexes, human, pooled human liver microsomes, pH 7.4, probe diclofenac (5 μM), HLM, diclofenac substrate, read-out: CYP 2C9 % Inhibition at 10 μM.

The target in a further data set is human 5-HT2C receptor (Homo sapiens (Human), UniProt P28335). As to the kind of experiment: cell-based. Conditions: Ca2+ flux. In kind it is cell-based. On the technique in general: Calcium assays in cells follow changes in intracellular calcium, usually with a dye or a luminescent sensor.
A further data set relates to C57BL/6 mice. As to the kind of experiment: Head twitch response (HTR) in mice. In kind it is in vivo. As to conditions: for Average HTR: 20 mins; for maximal effect in HTR: SC, maximal over tested doses. How it is done:
Animals. Adult male C57BL/6 mice, aged 8 weeks (body weight 20-25 g) were used in these experiments. Animals were housed under controlled temperatures and 12-hour light/dark cycles (lights on between 07:00-19:00 h), with ad libitum food and water. The protocol was approved by the Eurofins Advinus Institutional Animal Care and Use Committee. This study was carried out in strict accordance with the recommendations in the Guide for the Care and Use of Laboratory Animals of the National Institutes of Health. All efforts were made to minimize suffering.
Drugs and Drug administration. Compounds 3 and 4 were prepared as described above. All other compounds were commercially obtained. Test compounds were used as the hydrogen fumarate (1 and 2) or hydrochloride (DOI, 3, and 4) salts. Drugs were dissolved in a vehicle consisting of normal saline and administered subcutaneously (SC) in a volume of 10 ml/kg. Test compounds were administered at 5 doses per compound (0.1 to 100 mg/kg, as indicated, calculated based on the free base) using N=6 animals/group. […] For blockade experiments, MDL100907 (0.1 mg/kg, SC) was administered 10 mins prior to the test compound.
Procedure. Mice were administered one dose of a test drug (or vehicle) s.c. and immediately placed into a small open field for behavioral observation. Animals were observed continuously for 20 mins and the number of HTRs were counted by an observer blind to the treatment condition.
Statistical analysis. The data points shown in Table 11 are the mean ±standard error of the mean (SEM). Analysis was performed using GraphPad Prism 9.

Structures are written as SMILES. Structures can show the parent of a compound that is named as a salt.

Chain of human 5-HT2C receptor (P28335 33-458 limits assumed): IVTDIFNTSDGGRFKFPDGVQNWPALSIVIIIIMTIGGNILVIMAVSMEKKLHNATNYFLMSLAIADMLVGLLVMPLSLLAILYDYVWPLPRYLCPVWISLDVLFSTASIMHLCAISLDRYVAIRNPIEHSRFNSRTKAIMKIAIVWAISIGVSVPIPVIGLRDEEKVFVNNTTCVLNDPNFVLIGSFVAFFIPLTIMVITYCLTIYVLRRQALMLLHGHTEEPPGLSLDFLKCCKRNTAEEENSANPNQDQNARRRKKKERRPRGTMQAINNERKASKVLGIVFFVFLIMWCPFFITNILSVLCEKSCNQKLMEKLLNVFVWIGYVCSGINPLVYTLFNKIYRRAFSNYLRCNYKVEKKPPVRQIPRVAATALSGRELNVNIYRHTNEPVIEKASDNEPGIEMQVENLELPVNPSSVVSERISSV
Chain of CYP2C9 (P11712 whole entry, looked up): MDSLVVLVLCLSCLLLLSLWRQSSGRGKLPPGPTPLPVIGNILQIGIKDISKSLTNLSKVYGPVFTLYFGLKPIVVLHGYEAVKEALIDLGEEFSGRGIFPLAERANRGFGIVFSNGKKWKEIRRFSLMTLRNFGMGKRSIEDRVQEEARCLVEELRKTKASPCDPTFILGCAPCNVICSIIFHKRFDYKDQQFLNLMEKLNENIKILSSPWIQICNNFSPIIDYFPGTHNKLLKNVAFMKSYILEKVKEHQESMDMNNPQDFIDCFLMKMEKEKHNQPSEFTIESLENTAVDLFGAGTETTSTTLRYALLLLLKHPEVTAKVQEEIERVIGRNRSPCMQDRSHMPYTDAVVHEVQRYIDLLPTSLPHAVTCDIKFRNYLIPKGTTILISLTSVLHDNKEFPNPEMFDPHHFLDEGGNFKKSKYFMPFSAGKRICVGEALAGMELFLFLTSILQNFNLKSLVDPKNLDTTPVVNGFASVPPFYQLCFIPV
Chain of CYP2D6 (P10635 whole entry, looked up): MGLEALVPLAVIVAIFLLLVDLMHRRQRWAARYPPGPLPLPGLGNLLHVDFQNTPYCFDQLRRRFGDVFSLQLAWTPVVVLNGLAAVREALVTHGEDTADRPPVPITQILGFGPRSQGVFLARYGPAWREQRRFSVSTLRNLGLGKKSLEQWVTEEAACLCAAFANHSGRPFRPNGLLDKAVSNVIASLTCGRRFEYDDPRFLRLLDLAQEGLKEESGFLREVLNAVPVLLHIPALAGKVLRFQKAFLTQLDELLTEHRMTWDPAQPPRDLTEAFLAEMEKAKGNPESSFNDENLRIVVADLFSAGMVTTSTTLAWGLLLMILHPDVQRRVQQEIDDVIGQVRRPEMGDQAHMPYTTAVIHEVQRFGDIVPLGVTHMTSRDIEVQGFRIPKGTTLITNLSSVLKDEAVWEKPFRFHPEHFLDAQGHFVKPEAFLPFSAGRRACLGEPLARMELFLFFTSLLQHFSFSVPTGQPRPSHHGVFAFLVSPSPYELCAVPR
Chain of CYP2C19 (P33261 whole entry, looked up): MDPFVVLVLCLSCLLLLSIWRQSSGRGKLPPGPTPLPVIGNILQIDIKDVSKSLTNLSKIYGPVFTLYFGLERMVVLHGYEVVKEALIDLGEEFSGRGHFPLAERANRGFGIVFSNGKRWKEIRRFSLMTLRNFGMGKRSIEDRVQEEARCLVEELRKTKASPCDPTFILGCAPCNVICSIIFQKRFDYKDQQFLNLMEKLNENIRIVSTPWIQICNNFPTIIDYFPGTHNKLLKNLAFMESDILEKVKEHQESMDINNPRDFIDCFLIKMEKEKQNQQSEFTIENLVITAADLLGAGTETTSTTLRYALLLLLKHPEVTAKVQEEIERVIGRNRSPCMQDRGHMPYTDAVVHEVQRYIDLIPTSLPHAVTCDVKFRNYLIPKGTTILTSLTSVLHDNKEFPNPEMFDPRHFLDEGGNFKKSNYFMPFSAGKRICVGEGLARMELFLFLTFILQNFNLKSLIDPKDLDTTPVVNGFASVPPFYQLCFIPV
Chain of CYP3A4 (P08684 whole entry, looked up): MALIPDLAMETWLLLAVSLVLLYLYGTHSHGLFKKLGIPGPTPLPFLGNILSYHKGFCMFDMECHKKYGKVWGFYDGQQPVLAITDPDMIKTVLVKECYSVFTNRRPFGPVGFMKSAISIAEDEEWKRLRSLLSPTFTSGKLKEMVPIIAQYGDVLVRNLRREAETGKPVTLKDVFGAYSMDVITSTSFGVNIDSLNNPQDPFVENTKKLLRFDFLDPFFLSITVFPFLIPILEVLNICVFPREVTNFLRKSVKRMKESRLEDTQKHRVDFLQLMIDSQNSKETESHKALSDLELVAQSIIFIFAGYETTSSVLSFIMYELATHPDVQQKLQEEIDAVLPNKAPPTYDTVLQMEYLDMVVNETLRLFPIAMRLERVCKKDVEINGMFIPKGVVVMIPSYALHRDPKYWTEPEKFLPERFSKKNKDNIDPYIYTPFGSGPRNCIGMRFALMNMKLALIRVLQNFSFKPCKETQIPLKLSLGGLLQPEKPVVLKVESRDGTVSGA

In the case of `CCN(C)CCc1c[nH]c2cccc(O)c12` [Compound 6], in data set [1] (10 mg/kg), the AUC(0-t) is 3000 ng·h/mL. In data set [1] (10 mg/kg), the highest concentration (Cmax) was determined as 624 ng/mL. In addition, the Tmax in data set [1] (10 mg/kg) is 120 min. Besides, the IC50 is above 50 µM at CYP2C19, above 50 µM against CYP3A4, 48.5 µM against CYP2D6 and above 50 µM against CYP2C9.

For the compound `CCCN(CC)CCc1c[nH]c2ccccc12` [Compound 1, ethylpropyltryptamine], on human 5-HT2C receptor, the “5-HT2C % Act @ Max Dose” value came to 90.8%. For the same compound, on human 5-HT2C receptor, the EC50 was 0.0334 µM. The inhibition at 10 min, 10 µM amounted to 2.3% on CYP2C19, 2% on CYP3A4, 58.6% on CYP2D6 and 0.1% at CYP2C9. Besides, the “Average HTR” value was 14.667 in the data set on C57BL/6 mice (1 mg/kg SC), 8.000 in the data set on C57BL/6 mice (10 mg/kg SC) and 4.500 with C57BL/6 mice (100 mg/kg SC). In addition, the “maximal effect in HTR” value in the data set on C57BL/6 mice was 14.7 head twitches/20 min.

`CN(C)CCc1c[nH]c2ccc(F)cc12` [Compound 5, 2-(5-fluoro-1H-indol-3-yl)-N,N-dimethylethan-1-amine hydrochloride]: in data set [1] (10 mg/kg), the AUC(0-t) was determined as 266 ng·h/mL, the highest level (Cmax) was 243 ng/mL, the Tmax was 15 min and the half-life was 33 min.

Take `CCCN(CC)CCc1c[nH]c2ccc(F)cc12` [Compound 3, N-ethyl-N-(2-(5-fluoro-1H-indol-3-yl)ethyl) propan-1-amine hydrochloride]: the IC50 on CYP2C19 is above 50 µM; against CYP3A4, above 50 µM; on CYP2D6, 1.9 µM; on CYP2C9 it was above 50 µM. For the same compound, the “Average HTR” value in the data set with C57BL/6 mice (0.1 mg/kg SC) is on record as 12.5; in the data set on C57BL/6 mice (1 mg/kg SC), 29.333; in the data set on C57BL/6 mice (10 mg/kg SC), 26.333. For the same compound, the “maximal effect in HTR” value in the data set with C57BL/6 mice was determined as 29.33 head twitches/20 min.

Take `CCN(C)CCc1c[nH]c2ccccc12` [Compound 2, methylethyltryptamine]: the “5-HT2C % Act @ Max Dose” value at human 5-HT2C receptor came to 89.7%. The IC50 on CYP2C19 was above 50 µM; at CYP3A4 it was above 50 µM; on CYP2D6, 31.5 µM; at CYP2C9 it was above 50 µM. Further, the inhibition at 10 min, 10 µM on CYP2C19 was 0%; on CYP3A4, 0%; at CYP2D6 it was 11.5%; on CYP2C9 it was 0%. The “Average HTR” value with C57BL/6 mice (1 mg/kg SC) was 3.667; with C57BL/6 mice (10 mg/kg SC), 2.500; in the data set on C57BL/6 mice (100 mg/kg SC), 0.500. Further, the “maximal effect in HTR” value with C57BL/6 mice stood at 6.00 head twitches/20 min.

As to `CCN(C)CCc1c[nH]c2ccc(F)cc12` [Compound 4, N-ethyl-2-(5-fluoro-1H-indol-3-yl)-N-methylethan-1-amine hydrochloride], the area under the curve AUC(0-t) in data set [1] (1 mg/kg) is 46.8 ng·h/mL; in data set [1] (10 mg/kg), 499 ng·h/mL. Also, the Cmax was 41.3 ng/mL in data set [1] (1 mg/kg) and 237 ng/mL in data set [1] (10 mg/kg). Also, the Tmax in data set [1] (1 mg/kg) amounted to 30 min; in data set [1] (10 mg/kg), 60 min. Further, the “5-HT2C % Act @ Max Dose” value on human 5-HT2C receptor was 85.13%. Also, at human 5-HT2C receptor, the EC50 was 0.00946 µM. The IC50 at CYP2C19, on CYP3A4, on CYP2D6 and against CYP2C9 was above 50 µM each time. In addition, the “Average HTR” value in the data set with C57BL/6 mice (0.1 mg/kg SC) worked out at 5.00; in the data set with C57BL/6 mice (1 mg/kg SC) it was 18.333; with C57BL/6 mice (10 mg/kg SC) it was 9.333. Besides, the “total number of HTR counts vs. vehicle (FIG. 2)” value with C57BL/6 mice (Cmp 4 alone, Dunnett's test, P<0.0001) is reported as “significantly different from vehicle”. The “maximal effect in HTR” value in the data set on C57BL/6 mice is reported as 27.67 head twitches/20 min.
